# Earlier results, collected in paper PMC11477967, “Review of the Structural Characteristics and Biological Activities of Tricholoma Secondary Metabolites (2018–2023)” (Molecules, 2024).
# Like-named read-outs stand apart in the source and are kept apart here.
# Assays:
# MCF-7 [1] = system: MCF-7
# human tumor cell lines = system: human tumor cell lines; parameters: method as in PMID 29758519, PMID 32534274, PMID 26186257; conditions: Table 1 summary
# Pseudomonas aeruginosa = system: Pseudomonas aeruginosa; parameters: method as in PMID 26186257
# S. aureus [2] = system: S. aureus; parameters: method as in PMID 26186257
# A-549 [3] = system: A-549
# bacteria = system: bacteria; parameters: method as in PMID 32534274, PMID 26186257, PMID 34604687, PMID 28794307; conditions: Table 1 summary
# B. subtilis = system: B. subtilis; parameters: method as in PMID 26186257
# E. coli [4] = system: E. coli; parameters: method as in PMID 26186257
# S. epidermidis [5] = system: S. epidermidis; parameters: method as in PMID 26186257
# [6] = parameters: method as in PMID 36480815; conditions: Table 1 summary
# HeLa [7] = system: HeLa; parameters: method as in PMID 36480815; conditions: HeLa cell line
# [8] = parameters: method as in PMID 36480815; conditions: among 50-54
# human cancer cell lines = conditions: for Bioactivities: Cytotoxic against human cancer cell lines: Table 1 summary; for cytotoxicity rank: among 55, 56, 58, 60, 61, cell line not specified
# PDF = system: PDF; parameters: method as in PMID 36480815; conditions: PDF cells
# MCF-7 [9] = system: MCF-7; parameters: method as in doi:10.1177/1934578X1801300901
# MCF-7 [10] = system: MCF-7; parameters: method as in PMID 37175274
# WISH = system: WISH; parameters: method as in doi:10.1177/1934578X1801300901
# A549 = system: A549; parameters: method as in doi:10.1177/1934578X1801300901; conditions: said to surpass shikonin
# Hep G2 [11] = system: Hep G2; parameters: method as in PMID 37175274
# Caki-1 [12] = system: Caki-1; parameters: method as in PMID 37175274
# Caki-1 [13] = system: Caki-1; parameters: method as in doi:10.1177/1934578X1801300901
# A-549 [14] = system: A-549; parameters: method as in PMID 37175274
# Hep G2 [15] = system: Hep G2; parameters: method as in doi:10.1177/1934578X1801300901; conditions: said to surpass shikonin
# caspase-9 = system: caspase-9; parameters: method as in PMID 33449279; conditions: compared to the control group
# caspase-3 = system: caspase-3; parameters: method as in PMID 33449279; conditions: compared to the control group
# MCF-7 [16] = system: MCF-7; parameters: method as in PMID 33449279; conditions: MCF-7 cells
# HeLa [17] = system: HeLa; parameters: method as in PMID 33449279
# [18] = parameters: method as in doi:10.1016/0040-4039(96)01329-9; conditions: solutions containing trace inorganic acids
# S. aureus [19] = system: S. aureus; parameters: method as in PMID 28794307
# E. coli [20] = system: E. coli; parameters: method as in PMID 28794307
# Bacillus subtilis = system: Bacillus subtilis; parameters: method as in PMID 28794307
# S. epidermidis [21] = system: S. epidermidis; parameters: method as in PMID 28794307
structure (smiles),measurement,setting,value
"CC(C)C(C)C=CC(C)C1CCC2C(=CC(=O)OC3(C)CCC=CC3=O)C(=O)CCC21C (stereo not drawn) [Compound 40, chaxine C]",selective cytotoxicity,MCF-7 [1],selective toxicity
same,Bioactivities: Anti-cancer activity,human tumor cell lines,Anti-cancer activity
same,antibacterial activity,Pseudomonas aeruginosa,antibacterial activity
same,antibacterial activity,S. aureus [2],more significant inhibitory effect
same,IC50,A-549 [3],< 10 µM
same,selective cytotoxicity,A-549 [3],selective toxicity
same,Bioactivities: Antibacterial activity,bacteria,Antibacterial activity
same,antibacterial activity,B. subtilis,more significant inhibitory effect
same,antibacterial activity,E. coli [4],antibacterial activity
same,antibacterial activity,S. epidermidis [5],antibacterial activity
"CC(C)C(C)/C=C/[C@@H](C)C1CCC2C3=C[C@H](O)[C@@]45C[C@@H](O)CC[C@]4(C)[C@]3(CC[C@@]21C)O5 (stereo partly drawn) [Compound 50, anatoluin A]",Bioactivities: Antioxidant activity,[6],Antioxidant activity
same,toxicity to normal or healthy cell lines,L929,almost no toxicity
same,IC50,HeLa [7],14.3 ± 1.7 µg/mL
same,cytotoxic activity,MCF7,selectively inhibited
same,"lipid peroxidation inhibitory activity (rank, words)",[8],most active
same,cytotoxic activity,HT29,selectively inhibited
same,cytotoxic activity,H1299,selectively inhibited
same,IC50,H1299; H1299 cell line,34.3 ± 1.1 µg/mL
"CC(C)C(C)/C=C/[C@@H](C)C1CCC2C3=C[C@@H](O)[C@@]45C[C@@H](O)CC[C@]4(C)[C@]3(CC[C@@]21C)O5 (stereo partly drawn) [Compound 51, anatoluin B]",Bioactivities: Antioxidant activity,[6],Antioxidant activity
same,toxicity to normal or healthy cell lines,L929,almost no toxicity
same,cytotoxic activity,MCF7,selectively inhibited
same,cytotoxic activity,human cancer cell lines,good cytotoxic activity
same,cytotoxic activity,H1299,selectively inhibited
"CC(C)C(C)/C=C/C(C)C1CCC2C3=CC4OC45C[C@@H](O)CC[C@]5(C)C3CC[C@@]21C (stereo partly drawn) [Compound 52, 5α,6α-epoxy-ergosta-7,22-dien,3β-ol]",Bioactivities: Antioxidant activity,[6],Antioxidant activity
same,toxicity to normal or healthy cell lines,L929,almost no toxicity
same,cytotoxic activity,MCF7,selectively inhibited
same,cytotoxic activity,HT29,selectively inhibited
same,cytotoxic activity,H1299,selectively inhibited
"CC(C)C(C)C=CC(C)C1CCC2C1(C)CCC1C23C=CC2(CC(O)CCC12C)OO3 (stereo not drawn) [Compound 53, ergosterol-endoperoxide]",Bioactivities: Antioxidant activity,[6],Antioxidant activity
same,IC50,L929; L929 cells,65.6 ± 2.2 µg/mL
same,cytotoxic activity,HT29; HT29,selectively inhibited
same,Bioactivities: Cytotoxic against human cancer cell lines,human cancer cell lines,Cytotoxic against human cancer cell lines
same,IC50,PDF,52.8 ± 0.5 µg/mL
"C=C1CCC(CCC2CCC3(OC2)OC2(O)CCC3(C)OC2(C)C)C(C)(C)C1CC=C1C(=O)OCC1O (stereo not drawn) [Compound 56, saponaceolide A]",antiproliferative effects,MCF-7 [9],strong antiproliferative effects
same,inhibitory effects,MCF-7 [10],notable inhibitory effects
same,antiproliferative effects,WISH,strong antiproliferative effects
same,antiproliferative effects,A549,strong antiproliferative effects
same,inhibitory effects,Hep G2 [11],notable inhibitory effects
same,inhibitory effects,Caki-1 [12],notable inhibitory effects
same,antiproliferative effects,Caki-1 [13],strong antiproliferative effects
same,inhibitory effects,A-549 [14],notable inhibitory effects
same,antiproliferative effects,Hep G2 [15],strong antiproliferative effects
same,Bioactivities: Cytotoxic against human cancer cell lines,human cancer cell lines,Cytotoxic against human cancer cell lines
same,cytotoxicity rank,human cancer cell lines,most significant cytotoxicity
"C=C1CCC(CCC2CCC3(OC2)OC2(O)CCC3(C)OC2(C)C)C(C)(C)C1CC=C1CCOC1=O (stereo not drawn) [Compound 57, saponaceolide B]",inhibitory effects,MCF-7 [10],notable inhibitory effects
same,inhibitory effects,Hep G2 [11],notable inhibitory effects
same,inhibitory effects,Caki-1 [12],notable inhibitory effects
same,inhibitory effects,A-549 [14],notable inhibitory effects
same,Bioactivities: Cytotoxic against human cancer cell lines,human cancer cell lines,Cytotoxic against human cancer cell lines
"C=C1CCC(CC=C2CCC3(OC2)OC2(O)CCC3(C)OC2(C)C)C(C)(C)C1CC=C1C(=O)OCC1O (stereo not drawn) [Compound 60, saponaceolide F]",antiproliferative effects,MCF-7 [9],strong antiproliferative effects
same,inhibitory effects,MCF-7 [10],notable inhibitory effects
same,antiproliferative effects,WISH,strong antiproliferative effects
same,antiproliferative effects,A549,strong antiproliferative effects
same,inhibitory effects,Hep G2 [11],notable inhibitory effects
same,inhibitory effects,Caki-1 [12],notable inhibitory effects
same,antiproliferative effects,Caki-1 [13],strong antiproliferative effects
same,inhibitory effects,A-549 [14],notable inhibitory effects
same,antiproliferative effects,Hep G2 [15],strong antiproliferative effects
same,Bioactivities: Cytotoxic against human cancer cell lines,human cancer cell lines,Cytotoxic against human cancer cell lines
same,cytotoxicity rank,human cancer cell lines,most significant cytotoxicity
"C=C1CCC(CC=C2CCC3(OC2)OC2(O)CCC3(C)OC2(C)C)C(C)(C)C1CC=C1CCOC1=O (stereo not drawn) [Compound 62, saponaceolide J]",inhibitory effects,MCF-7 [10],notable inhibitory effects
same,inhibitory effects,Hep G2 [11],notable inhibitory effects
same,inhibitory effects,Caki-1 [12],notable inhibitory effects
same,inhibitory effects,A-549 [14],notable inhibitory effects
same,Bioactivities: Cytotoxic against human cancer cell lines,human cancer cell lines,Cytotoxic against human cancer cell lines
"C=C1CCC(CCC2CC=C(C3(C)CCC(=O)C(C)(C)O3)OC2)C(C)(C)C1CC=C1C(=O)OCC1O (stereo not drawn) [Compound 63, tricholopardin C]",activation of caspase-9,caspase-9,activation
same,activation of caspase-3,caspase-3,activation
same,Bioactivities: Cytotoxic against human cancer cell lines,human cancer cell lines,Cytotoxic against human cancer cell lines
same,IC50,MCF-7 [16],4.7 µM
same,cytotoxicity,HeLa [17],cytotoxicity
"C=C1CCC(CCC2CC=C(C3(C)CCC(=O)C(C)(C)O3)OC2)C(C)(C)C1CC=C1CCOC1=O (stereo not drawn) [Compound 64, tricholopardin D]",Bioactivities: Cytotoxic against human cancer cell lines,human cancer cell lines,Cytotoxic against human cancer cell lines
same,cytotoxicity,HeLa [17],cytotoxicity
"C=C(C#CC1=CC(OC(C)=O)CC(OC(=O)C(C)=CCCC(=C)C#CC2=CC(OC(C)=O)C3OC3C2=O)C1=O)CCC=C(C)C(=O)O (stereo not drawn) [Compound 79, tricholomenyn C]",stability,[18],easily decomposes
"C=CC(O)CCCCC (stereo not drawn) [Compound 93, 1-octen-3-ol]",antibacterial activity,S. aureus [19],strong antibacterial activity
same,antibacterial activity,E. coli [20],strong antibacterial activity
same,antibacterial activity,Bacillus subtilis,strong antibacterial activity
same,antibacterial activity,S. epidermidis [21],strong antibacterial activity
same,Bioactivities: Antibacterial activity,bacteria,Antibacterial activity
